# Source: ChEMBL document CHEMBL3774345, “Synthesis of new diarylamides with pyrimidinyl pyridine scaffold and evaluation of their anti-proliferative effect on cancer cell lines” (Bioorg Med Chem Lett, 2016)
# Tests used:
# [1] = Cytotoxicity against human PC3 cells assessed as growth inhibition at 10 uM after 24 hrs by SRB assay; type: functional; conditions: PC-3, 24 h, read-out: GI
# A549 [2] = test: Cytotoxicity against human A549 cells assessed as cell growth at 10^-5 M after 24 hrs by SRB assay; type: functional; conditions: A549, 24 h, read-out: Activity
# [3] = Cytotoxicity against human PC3 cells assessed as cell growth at 10^-7 M after 24 hrs by SRB assay; type: functional; conditions: PC-3, 24 h, read-out: Activity
# [4] = Cytotoxicity against human LOXIMVI cells assessed as cell growth at 10^-5 M after 24 hrs by SRB assay; type: functional; conditions: LOX IMVI, read-out: Activity
# [5] = Cytotoxicity against human UO31 cells after 24 hrs by SRB assay; type: functional, cell-based; conditions: UO-31, 24 h
# [6] = Cytotoxicity against human SW620 cells assessed as cell growth at 10^-7 M after 24 hrs by SRB assay; type: functional; conditions: SW-620, 24 h, read-out: Activity
# [7] = Cytotoxicity against human HCC2998 cells assessed as cell growth at 10^-6 M after 24 hrs by SRB assay; type: functional; conditions: HCC 2998, 24 h, read-out: Activity
# [8] = Cytotoxicity against human HL-60(TB) cells assessed as cell growth at 10^-8 M after 24 hrs by SRB assay; type: functional; conditions: HL-60, 24 h, read-out: Activity
# [9] = Cytotoxicity against human RXF393 cells assessed as cell growth at 10^-4 M after 24 hrs by SRB assay; type: functional; conditions: RXF 393, 24 h, read-out: Activity
# [10] = Cytotoxicity against human HOP92 cells assessed as cell growth at 10^-8 M after 24 hrs by SRB assay; type: functional; conditions: HOP-92, 24 h, read-out: Activity
# SK-MEL-5 = test: Cytotoxicity against human SK-MEL-5 cells after 24 hrs by SRB assay; type: functional, cell-based; conditions: SK-MEL-5, 24 h
# SN12C = test: Cytotoxicity against human SN12C cells after 24 hrs by SRB assay; type: functional
# [11] = Cytotoxicity against human TK10 cells assessed as cell growth at 10^-4 M after 24 hrs by SRB assay; type: functional; conditions: TK-10, 24 h, read-out: Activity
# A498 = test: Cytotoxicity against human A498 cells assessed as cell growth at 10^-6 M after 24 hrs by SRB assay; type: functional; conditions: A498, 24 h, read-out: Activity
# NCI-H522 [12] = test: Cytotoxicity against human NCI-H522 cells assessed as cell growth at 10^-7 M after 24 hrs by SRB assay; type: functional; conditions: NCI-H522, 24 h, read-out: Activity
# MDA-MB-435 = test: Cytotoxicity against human MDA-MB-435 cells after 24 hrs by SRB assay; type: functional, cell-based; conditions: MDA-MB-435, 24 h
# NCI-H522 [13] = test: Cytotoxicity against human NCI-H522 cells assessed as cell growth at 10^-5 M after 24 hrs by SRB assay; type: functional; conditions: NCI-H522, 24 h, read-out: Activity
# A549 [14] = test: Cytotoxicity against human A549 cells assessed as cell growth at 10^-8 M after 24 hrs by SRB assay; type: functional; conditions: A549, 24 h, read-out: Activity
# [15] = Cytotoxicity against human UO31 cells assessed as cell growth at 10^-4 M after 24 hrs by SRB assay; type: functional; conditions: UO-31, 24 h, read-out: Activity
# CCRF-CEM = test: Cytotoxicity against human CCRF-CEM cells assessed as cell growth at 10^-8 M after 24 hrs by SRB assay; type: functional; conditions: read-out: Activity
# [16] = Cytotoxicity against human IGROV1 cells assessed as cell growth at 10^-4 M after 24 hrs by SRB assay; type: functional; conditions: IGROV-1, 24 h, read-out: Activity
# NCI-H322M = test: Cytotoxicity against human NCI-H322M cells after 24 hrs by SRB assay; type: functional
# [17] = Cytotoxicity against human NCI-ADR-RES cells assessed as cell growth at 10^-4 M after 24 hrs by SRB assay; type: functional; conditions: read-out: Activity
# MDA-MB-231 = test: Cytotoxicity against human MDA-MB-231 cells after 24 hrs by SRB assay; type: functional, cell-based; conditions: MDA-MB-231, 24 h
# 786-0 [18] = test: Cytotoxicity against human 786-0 cells assessed as cell growth at 10^-8 M after 24 hrs by SRB assay; type: functional; conditions: 786-0, 24 h, read-out: Activity
# [19] = Cytotoxicity against human SF268 cells assessed as cell growth at 10^-6 M after 24 hrs by SRB assay; type: functional; conditions: SF-268, 24 h, read-out: Activity
# [20] = Cytotoxicity against human SW620 cells assessed as cell growth at 10^-4 M after 24 hrs by SRB assay; type: functional; conditions: SW-620, 24 h, read-out: Activity
# [21] = Cytotoxicity against human SF539 cells assessed as cell growth at 10^-8 M after 24 hrs by SRB assay; type: functional; conditions: SF-539, 24 h, read-out: Activity
# [22] = Cytotoxicity against human HCT15 cells assessed as cell growth at 10^-5 M after 24 hrs by SRB assay; type: functional; conditions: HCT-15, 24 h, read-out: Activity
# 786-0 [23] = test: Cytotoxicity against human 786-0 cells assessed as cell growth at 10^-7 M after 24 hrs by SRB assay; type: functional; conditions: 786-0, 24 h, read-out: Activity
# SK-MEL-28 = test: Cytotoxicity against human SK-MEL-28 cells assessed as cell growth at 10^-8 M after 24 hrs by SRB assay; type: functional; conditions: SK-MEL-28, 24 h, read-out: Activity
# [24] = Cytotoxicity against human HCT116 cells assessed as cell growth at 10^-7 M after 24 hrs by SRB assay; type: functional; conditions: HCT-116, 24 h, read-out: Activity
# [25] = Cytotoxicity against human HOP62 cells assessed as cell growth at 10^-4 M after 24 hrs by SRB assay; type: functional; conditions: HOP-62, 24 h, read-out: Activity
# [26] = Cytotoxicity against human UACC62 cells after 24 hrs by SRB assay; type: functional, cell-based; conditions: UACC-62, 24 h
# [27] = read-out: LC50 (the source's name)
# [28] = read-out: pLC50 (the source's name) (converted)
smiles,measurement,setting,value
COCCCNc1nc(NC(=O)c2cc(Br)cc(C(F)(F)F)c2)cc(-c2cccnc2)n1,inhibition of growth at 10 µM,[1],29.4%
O=C(Nc1cc(-c2cccnc2)nc(NCCCN2CCOCC2)n1)c1cc(Br)cc(C(F)(F)F)c1,growth at 10 µM,A549 [2],51%
same,growth at 0.1 µM,[3],95%
same,growth at 10 µM,[4],-93%
same,IC50,[5],1.4 µM
same,GI50,[5]; read-out: GI50,1.4 µM
same,CC50,[5]; [27],8.19 µM
same,TGI,[5]; read-out: TGI,3.39 µM
same,GI50,[5]; read-out: pGI50 (converted),1.41 µM
same,CC50,[5]; [28],8.13 µM
same,TGI,[5]; read-out: pTGI (converted),3.39 µM
same,growth at 0.1 µM,[6],96%
same,growth at 1 µM,[7],92%
same,growth at 0.01 µM,[8],100%
same,growth at 100 µM,[9],-86%
same,growth at 0.01 µM,[10],80%
same,IC50,SK-MEL-5,1.62 µM
same,GI50,SK-MEL-5; read-out: GI50,1.64 µM
same,CC50,SK-MEL-5; [27],5.56 µM
same,TGI,SK-MEL-5; read-out: TGI,3.02 µM
same,GI50,SK-MEL-5; read-out: pGI50 (converted),1.66 µM
same,CC50,SK-MEL-5; [28],5.62 µM
same,TGI,SK-MEL-5; read-out: pTGI (converted),3.02 µM
same,GI50,SN12C; read-out: GI50,7.74 µM
same,CC50,SN12C; [27],53.5 µM
same,TGI,SN12C; read-out: TGI,21.8 µM
same,GI50,SN12C; read-out: pGI50 (converted),7.76 µM
same,CC50,SN12C; [28],53.7 µM
same,TGI,SN12C; read-out: pTGI (converted),22.4 µM
same,growth at 100 µM,[11],-98%
same,growth at 1 µM,A498,92%
same,growth at 0.1 µM,NCI-H522 [12],92%
same,IC50,MDA-MB-435,1.66 µM
same,GI50,MDA-MB-435; read-out: GI50,1.66 µM
same,CC50,MDA-MB-435; [27],5.98 µM
same,TGI,MDA-MB-435; read-out: TGI,3.15 µM
same,GI50,MDA-MB-435; read-out: pGI50 (converted),1.66 µM
same,CC50,MDA-MB-435; [28],6.03 µM
same,TGI,MDA-MB-435; read-out: pTGI (converted),3.16 µM
same,growth at 10 µM,NCI-H522 [13],-32%
same,growth at 0.01 µM,A549 [14],110%
same,growth at 100 µM,[15],-90%
same,growth at 0.01 µM,CCRF-CEM,100%
same,growth at 100 µM,[16],-72%
same,GI50,NCI-H322M; read-out: GI50,3.72 µM
same,CC50,NCI-H322M; [27],43.2 µM
same,TGI,NCI-H322M; read-out: TGI,15 µM
same,GI50,NCI-H322M; read-out: pGI50 (converted),3.72 µM
same,CC50,NCI-H322M; [28],43.7 µM
same,TGI,NCI-H322M; read-out: pTGI (converted),15.1 µM
same,growth at 100 µM,[17],-77%
same,IC50,MDA-MB-231,1.79 µM
same,GI50,MDA-MB-231; read-out: GI50,1.79 µM
same,CC50,MDA-MB-231; [27],8.65 µM
same,TGI,MDA-MB-231; read-out: TGI,3.93 µM
same,GI50,MDA-MB-231; read-out: pGI50 (converted),1.78 µM
same,CC50,MDA-MB-231; [28],8.71 µM
same,TGI,MDA-MB-231; read-out: pTGI (converted),3.89 µM
same,growth at 0.01 µM,786-0 [18],93%
same,growth at 1 µM,[19],85%
same,growth at 100 µM,[20],-87%
same,growth at 0.01 µM,[21],95%
same,growth at 10 µM,[22],-32%
same,growth at 0.1 µM,786-0 [23],91%
same,growth at 0.01 µM,SK-MEL-28,92%
same,growth at 0.1 µM,[24],107%
same,growth at 100 µM,[25],-97%
same,GI50,[26],1.95 µM
same,CC50,[26]; [27],9.92 µM
same,TGI,[26]; read-out: TGI,4.38 µM
same,CC50,[26]; [28],10 µM
same,TGI,[26]; read-out: pTGI (converted),4.37 µM
